The text below walks through data of US7671077B2, “Neuroprotective small organic molecules, compositions and uses related thereto” (priority 2004, dated 2010).

Entries after “also recorded” stand apart in the source; their conditions may differ.

The subject of data set [1] is TH^+ cells. Briefly: Staining for apoptotic DA neurons (TH / Hoechst 33258). The note with it: 2.5 μM added at plating; DIV 13. It is filed as cell-based, rat. The method, then:
(§1) Primary midbrain cultures were prepared from rat embryo ventral mesencephalon as described previously by Lin et al (1994). In brief, rostral mesencephalic tegmentum of embryonic day 16 rat embryos was collected in DMEM/F12 (Hyclone SH30023.01) containing 2 mM glutamine on ice, The tissue was treated with 0.1% trypsin in Hanks' balanced salt solution (HBSS, Gibco 14175-095) for 15 min at 37° C. and dissociated mechanically by mild trituration with a fire-polished glass pipet in growth medium plus 2% heat-inactivated fetal bovine serum (FBS). […]
To measure the percent of DA neurons undergoing apoptosis after different treatments, DIV-13 cultures (which were medium changed twice on DIV 5 and 9) were first stained with an anti-TH antibody and with FITC-conjugated goat anti-mouse secondary antibody (1:200, Jackson Lab) for 1 h at room temperature to label DA neurons. […] Cells were viewed under an inverted fluorescence microscope (Olympus) equipped with appropriate filters. Healthy and apoptotic TH^+ cells TH^+ cell numbers were counted in the entire area of each well by an observer who is blinded to the treatment.

Data set [2] has as its system TPH^+ cells. The experiment in a line: TPH immunostaining in primary hindbrain cultures. The format is cell-based, rat. The note with it: hindbrain culture, DIV 13.
Data set [3] concerns GFAP-positive cells. The experiment in a line: GFAP immunostaining, astrocyte count in midbrain cultures. It is filed as cell-based, rat. To be noted: midbrain culture, DIV 7. The method, then:
as §1
(§2) The primary antibodies were: anti-TH monoclonal (1:400, Boehringer-Mannheim); anti-GFAP polyclonal (1:200, DAKO); anti-NSE polyclonal (1:2000, Polysciences Inc.); anti-tryptophan hydroxylase polyclonal (TPH) (1:500, Eugene Tech) and anti-islet-1 monoclonal (1:100, Developmental Studies Hybridoma Bank). […] Process-bearing TH-positive cells were counted at 100× magnification in consecutive fields covering the whole 16-mm-diameter culture well. GFAP-positive cells were counted in half the culture well. NSE-positive cells were counted in 3 photographed fields.

For data set [4], the system named is midbrain dopaminergic neurons. Briefly: Dopamine (DA) uptake assay in primary midbrain cultures. The format is cell-based, rat. The essentials: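 Cultures from E16 rat ventral mesencephalon were given serial sample dilutions within 24 h of plating and grown serum-free for 7 days at 37 °C. Uptake of 50 nM [3H]DA measured for 20 min at 37 °C by scintillation; background defined with 0.5 mM GBR-12909, forskolin 25 μM as positive control.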

In data set [5] the test system is TH^+ neurons. Briefly: MPP^+ induced neurotoxicity in midbrain cultures. The note with it: 2 μM MPP^+ for 36 h; 2.5 μM compound; control cultures lost 48%. The format is cell-based, rat. The method, then: FIG. 34 depicts mechanism of compound A effect in midbrain cultures. 2.5 μM compound A was added at the time of plating. (A) Compound A reduces the rate of apoptosis of TH-positive cells. *p<0.05 versus Con, Student's t test. (B) Compound A protects TH-positive cells from MPP^+ induced neurotoxicity. Cultures at DIV 4 were treated with 2 μM MPP^+ (open bars) for 36 hrs, and processed for TH staining. *p<0.05 versus corresponding cultures not treated with MPP^+ (solid bars). #p<0.05 versus corresponding cultures without Compound A, Student's t test. Data represent averages (n=3) with SD shown in error bars.
Primary midbrain cultures were prepared from rat embryo ventral mesencephalon as described previously by Lin et al (1994). […]
The primary antibodies were: anti-TH monoclonal (1:400, Boehringer-Mannheim); anti-GFAP polyclonal (1:200, DAKO); anti-NSE polyclonal (1:2000, Polysciences Inc.); anti-tryptophan hydroxylase polyclonal (TPH) (1:500, Eugene Tech) and anti-islet-1 monoclonal (1:100, Developmental Studies Hybridoma Bank). […] Process-bearing TH-positive cells were counted at 100× magnification in consecutive fields covering the whole 16-mm-diameter culture well. GFAP-positive cells were counted in half the culture well. NSE-positive cells were counted in 3 photographed fields. […]

Data set [6] relates to TH-positive neurons. The experiment in a line: TH immunostaining and count of TH-positive neurons in midbrain cultures. It is filed as cell-based, rat. The method, then:
as §1, §2

For data set [7], the system named is NSE-positive cells. Briefly: NSE immunostaining, total neuron count in midbrain cultures. It is filed as cell-based, rat. The note with it: 2.5 μM; DIV 0, 5 or 7; versus untreated. The method, then: as §1, §2
The test system of data set [8] is serotonergic neurons. Briefly: Serotonin (5-HT) uptake assay in midbrain cultures. The format is cell-based, rat. The note with it: midbrain culture, DIV 8, concentration range that increased DA uptake. As for the experimental part: (§3) Primary midbrain cultures were prepared from rat embryo ventral mesencephalon as described previously by Lin et al (1994). In brief, rostral mesencephalic tegmentum of embryonic day 16 rat embryos was collected in DMEM/F12 (Hyclone SH30023.01) containing 2 mM glutamine on ice, The tissue was treated with 0.1% trypsin in Hanks' balanced salt solution (HBSS, Gibco 14175-095) for 15 min at 37° C. and dissociated mechanically by mild trituration with a fire-polished glass pipet in growth medium plus 2% heat-inactivated fetal bovine serum (FBS). The growth medium consisted of equal volumes of Dulbecco's minimal essential medium DMEM (Gibco 12100-046) and HAM's F12 nutrient mixture (Gibco 21700-075) supplemented with 33 mM glucose, 13 mM sodium bicarbonate, 5 mM HEPES, 2 mM glutamine, 25 μg/ml insulin, 100 μg/ml transferrin, 60 μM putrescine, 20 nM progesterone, 30 nM sodium selenite, 5 U/ml penicillin G and 5 μg/ml streptomycin. 24-well tissue culture plate was coated by adding 15 μg/ml poly-1-ornithine hydrobromide solution at 0.5 ml/well, incubated at room temperature for 1 hr. The coating solution was removed and the well washed 3 times with distilled water and one wash with HBSS. The dissociated cells were plated onto polyornithine-coated wells at 250,000-350,000 trypan blue-excluding viable cells per well in 500 μl of above medium containing 1% FBS. […]

The subject of data set [9] is serotonergic neurons of hindbrain culture. Briefly: Serotonin (5-HT) uptake assay in primary hindbrain cultures. The format is cell-based, rat.
The test system of data set [10] is GABA-containing neurons. Briefly: GABA uptake assay in midbrain cultures. It is filed as cell-based, rat. To be noted: midbrain culture, DIV 8, concentration range that increased DA uptake. As for the experimental part: as §3
Data set [11] deals with islet-1^+ motoneurons. The experiment in a line: islet-1 immunostaining, motoneuron count in midbrain cultures. It is filed as cell-based, rat. The note with it: 2.5 μM; DIV 1, 2 and 3. The method, then: as §1, §2
Data set [12] concerns midbrain dopaminergic neurons. The note with it: Lin et al. 1993, 1994; cited from earlier work.

Turning to `O=C(/C=C/c1ccccc1Cl)Nc1ccc(S(=O)(=O)Nc2nccs2)cc1` [Compound A], the “reduction of the rate of apoptosis of TH^+ cells” value in data set [1] is recorded as “about 50%”. Further, the “survival / number of TPH^+ neurons” value in data set [2] is given as “does not change either the number of TPH^+ cells nor the amount of serotonin uptake in hindbrain cultures; also recorded: did not promote the survival of neurons immunoreactive for the key serotonin-synthesizing enzyme TPH”. Besides, the GFAP-positive cell numbers result in [3] is given as “does not affect GFAP^+ cell number; also recorded: not affected”. The “DA uptake on conjoint treatment with GDNF” value in [4] (2.5 μM compound A added to a maximally effective concentration of GDNF) is “additive effect; also recorded: increased DA uptake above that reached by either GDNF or compound A alone; also recorded: at least as potent as that of forskolin”. Further, the activity at 2.5 µM in [4] (Rattus norvegicus, Neuron, compound concentration 2.5 μM, midbrain culture, read-out: DA uptake % of control) worked out at 240%. In addition, in data set [4] (Rattus norvegicus, Neuron, DIV 6, varied between different experiments, read-out: maximal stimulation of DA uptake), the Emax was 180 to 280%. Also, in data set [4] (dose-dependent effect, FIG. 32A, 7 DIV), the “concentration of maximal effect on DA uptake” value was “around 2.5 μM”. The “concentration at which the compound was toxic and decreased DA uptake” value in [4] (midbrain culture) is “above 10 μM”. The “stimulation of DA uptake (in words)” value in data set [4] (midbrain culture, 7 DIV) was “stimulates dopamine (DA) uptake in a dose-dependent manner”. The “loss of TH^+ neurons after MPP^+” value in [5] was 20%. Further, in [6] (2.5-5 μM added once at the time of plating, day 7 or day 12), the “number of TH positive neurons (dopaminergic neuron survival)” value is reported as “promotes survival of TH^+ neurons; also recorded: about twice as many DA neurons”. Further, the “tyrosine hydroxylase (TH) immunoreactivity” value in data set [6] (mesencephalic cultures) is “upregulated”. The NSE-positive cell numbers entry in data set [7] is recorded as “does not increase total number of NSE^+ cells; also recorded: indistinguishable from the non-treated control wells”. Moreover, the “serotonin (5-HT) uptake” value in data set [8] is “does not lead to an increase in GABA or 5-HT uptake; also recorded: Neither GABA (FIG. 33C) nor serotonin (FIG. 33D) uptake was significantly affected”; in data set [8] (listed as CUR-162590) it was “little, if any, effect”. Further, the “cytotoxicity on the hindbrain culture (inhibition of serotonin uptake)” value in [9] (10 μM) is “showed cytotoxicity on the hindbrain culture”. Further, the “serotonin uptake in hindbrain culture” value in [9] (DIV 8, concentrations necessary for increasing dopamine uptake in midbrain culture) is recorded as “does not change either the number of TPH^+ cells nor the amount of serotonin uptake in hindbrain cultures; also recorded: nor did it increase serotonin uptake in the hindbrain culture”. Also, the GABA uptake result in [10] was “does not lead to an increase in GABA or 5-HT uptake; also recorded: Neither GABA (FIG. 33C) nor serotonin (FIG. 33D) uptake was significantly affected”; in data set [10] (listed as CUR-162590), “little, if any, effect”. Besides, the “number of islet-1^+ motoneurons” value in [11] was 115-150 % of control.

B1: GDNF: glial cell line-derived neurotrophic factor (protein, UniProt P39905 78-211, looked up)
Glial cell line-derived …: SPDKQMAVLPRRERNRQAAAANPENSRGKGRRGQRGKNRGCVLTAIHLNVTDLGLGYETKEELIFRYCSGSCDAAETTYDKILKNLSRNRRLVSDKVGQACCRPIAFDDDLSFLDDNLVYHILRKHSAKRCGCI
B1: in data set [12], the “concentration at which the effect on DA uptake plateaus” value is given as “around 1 ng/ml”.
